According to US10851115B2, “Heterocyclic compounds as RSV inhibitors” (Enanta Pharmaceuticals, Inc., priority 2017, dated 2020):
pEC50: −log10 of the molar value.

system: Human RSV-A (“Long” strain); test: RSV in vitro cytoprotection assay in HEp-2 cells (ATPlite readout); type: cell-based; details: human respiratory syncytial virus, 96 h; HEp-2 cells, 4-day incubation, ATPlite; read-out: Human RSV-A (“Long” strain) EC50
Description: RSV is a single stranded negative sense RNA virus that causes respiratory tract infections which can be dangerous to infants, the elderly, and immunosuppressed individuals. Currently there is no vaccine, and therapeutic options are both costly and of limited effectiveness. These approved treatments are Ribavirin, and Palivizumab/Synagis (a monoclonal antibody). RSV has two genotypes, A and B, which differ primarily in the structure of the virus' surface “G” attachment protein. Our current primary screen focusses on RSV-A and uses an in vitro cytoprotection assay where compounds are added in 2-fold dilutions to cells which are then subjected to fully replicative viral particles. Cell viability is measured several days later along with separate measurements of compound cytotoxicity. This report focuses on the results of our most recent screening of compounds.
HEp-2 cells, (originally derived from tumors grown in irradiated-cortisonised weanling rats that had been injected with epidermoid carcinoma tissue from a person's larynx, but later found to be indistinguishable from HeLa cells by PCR DNA analysis), were used for the culturing of genotype A, “Long” strain RSV. Flasks were inoculated with RSV and viral stocks were collected once cytopathic effect (CPE) was greater than 90%. Viral stocks in 25% sucrose media were snap frozen using liquid nitrogen to increase viral stability. Viral stock titers were quantified by tissue culture infectious dose 50% (TCID50) using 8,000 cells per well and 3-fold viral dilutions across a 96-well plate, cultured for 4 days.
Following extensive parameter testing, the final assay is run as follows: HEp-2 cells are seeded into the inner 60 wells of a 96-well plate at 8,000 cells per well in a volume of 50 μL using Growth Media (DMEM without phenol red, 1% L-Glut, 1% Penn/Strep, 1% nonessential amino acids, 10% FBS). 2-Fold serial dilutions of control and test compounds are added to the wells in duplicate in a total volume of 25 μL. Viral stock is then added to the wells in a volume of 25 μL, bringing the total volume of each well to 100 μL. Each 96-well plate has a control column of 6 wells with cells and virus but no compound (negative control, max CPE), a column with cells but no compound or virus (positive control, minimum CPE), and a column with no cells or virus or compound (background plate/reagent control). The control wells with cells but no virus are given an additional 25 uL of growth media containing an equal quantity of sucrose as those wells receiving the viral stock in order to keep consistent in media and volume conditions. The outer wells of the plate are filled with 125 μL of growth media to act as a thermal and evaporative moat around the test wells. Following a 4-day incubation period, the plates are read using ATPlite (50 uL added per well), which quantifies the amount of ATP (a measure of cell health) present in each well. Assay plates are read using the Envision luminometer. In parallel, cytotoxicity is examined on an additional 96-well plate treated in an identical manner, but substituting the 25 μL of viral stock for 25 μL of growth media. […] EC50 ranges are as follows: A<0.01 μM; B 0.01-0.05 μM; C>0.05 μM.

How did the pEC50 turn out when `Cc1cnc(N2CC3(CCOCC3)C2)c(C(=O)Nc2ccc(C(=O)N3CCc4c(sc(-c5nc6ccccc6[nH]5)c4F)-c4ncccc43)cc2)c1` [Example 71] was run?
The pEC50 was greater than 8.00.

With `Cc1cnc(N2CC3(CCOCC3)C2)c(C(=O)Nc2ccc(C(=O)N3CCc4c(sc(C(=O)Nc5ncccc5F)c4F)-c4ncccc43)cc2)c1` [Example 72] as the molecule, how does the pEC50 read?
The pEC50 was greater than 8.00.

`Cc1cnc(N2CC3(CCOCC3)C2)c(C(=O)Nc2ccc(C(=O)N3CCc4c(sc(C(=O)Nc5c(C)cccc5F)c4F)-c4ncccc43)cc2)c1` [Example 73] was tested. Which pEC50 did it give?
The pEC50 was greater than 8.00.

How did the pEC50 turn out when `Cc1cnc(N2CC3(CCOCC3)C2)c(C(=O)Nc2ccc(C(=O)N3CCc4c(sc(C(=O)Nc5ccccc5)c4F)-c4ncccc43)cc2)c1` [Example 74] was run?
The pEC50 was greater than 8.00.

`Cc1cnc(N2CC3(CCOCC3)C2)c(C(=O)Nc2ccc(C(=O)N3CCc4c(sc(C(=O)Nc5c(C)cccc5C#N)c4F)-c4ncccc43)cc2)c1` [Example 75] was tested. Which pEC50 did it give?
The pEC50 was greater than 8.00.

`Cc1cnc(N2CC3(CCOCC3)C2)c(C(=O)Nc2ccc(C(=O)N3CCc4c(sc(C(=O)Nc5c(F)cccc5Cl)c4F)-c4ncccc43)cc2)c1` [Example 76] was tested. Which pEC50 did it give?
Its pEC50 is greater than 8.00.

`Cc1cnc(N2CC3(CCOCC3)C2)c(C(=O)Nc2ccc(C(=O)N3CCc4c(sc(C(=O)Nc5c(F)cccc5C(F)(F)F)c4F)-c4ncccc43)cc2)c1` [Example 77] was tested. Which pEC50 did it give?
The pEC50 was 7.30 to 8.00.

With `Cc1cnc(N2CC3(CCOCC3)C2)c(C(=O)Nc2ccc(C(=O)N3CCc4c(sc(-c5nc6cccc(F)c6[nH]5)c4F)-c4ncccc43)cc2)c1` [Example 78] as the molecule, how does the pEC50 read?
The pEC50 was greater than 8.00.

`Cc1cnc(N2CC3(CCOCC3)C2)c(C(=O)Nc2ccc(C(=O)N3CCc4c(sc(-c5nc6ccc(F)cc6[nH]5)c4F)-c4ncccc43)cc2)c1` [Example 79] was tested. Which pEC50 did it give?
Its pEC50 is greater than 8.00.

How did the pEC50 turn out when `Cc1ccc(C(=O)Nc2ccc(C(=O)N3CCc4c(sc(C(=O)Nc5c(F)cccc5F)c4F)-c4ncccc43)cc2)c(N2CC3(CCOCC3)C2)n1` [Example 81] was run?
The pEC50 was greater than 8.00.

How did the pEC50 turn out when `Cc1ccc(C(=O)Nc2ccc(C(=O)N3CCc4c(sc(-c5nc6ccccc6[nH]5)c4F)-c4ncccc43)cc2)c(N2CC3(CCOCC3)C2)n1` [Example 82] was run?
The pEC50 was greater than 8.00.

How did the pEC50 turn out when `Cc1ccc(C(=O)Nc2ccc(C(=O)N3CCc4c(sc(C(=O)Nc5c(C)cccc5F)c4F)-c4ncccc43)cc2)c(N2CC3(CCOCC3)C2)n1` [Example 83] was run?
Its pEC50 is greater than 8.00.

`Cc1ccc(C(=O)Nc2ccc(C(=O)N3CCc4c(sc(C(=O)Nc5ncccc5F)c4F)-c4ncccc43)cc2)c(N2CC3(CCOCC3)C2)n1` [Example 84] was tested. Which pEC50 did it give?
The pEC50 was greater than 8.00.

How did the pEC50 turn out when `Cc1ccc(C(=O)Nc2ccc(C(=O)N3CCc4c(sc(-c5nc6cccc(F)c6[nH]5)c4F)-c4ncccc43)cc2)c(N2CC3(CCOCC3)C2)n1` [Example 85] was run?
The pEC50 was greater than 8.00.

How did the pEC50 turn out when `Cc1ccc(C(=O)Nc2ccc(C(=O)N3CCc4c(sc(C(=O)Nc5c(F)cccc5Cl)c4F)-c4ncccc43)cc2)c(N2CC3(CCOCC3)C2)n1` [Example 86] was run?
The pEC50 was greater than 8.00.

How did the pEC50 turn out when `Cc1ccc(C(=O)Nc2ccc(C(=O)N3CCc4c(sc(C(=O)Nc5c(F)cccc5C(F)(F)F)c4F)-c4ncccc43)cc2)c(N2CC3(CCOCC3)C2)n1` [Example 87] was run?
The pEC50 was greater than 8.00.

How did the pEC50 turn out when `Cc1ccc(C(=O)Nc2ccc(C(=O)N3CCc4c(sc(-c5nc6ccc(F)cc6[nH]5)c4F)-c4ncccc43)cc2)c(N2CC3(CCOCC3)C2)n1` [Example 88] was run?
The pEC50 was greater than 8.00.

`Cc1cnc(N2CCC3(CC2)COC3)c(C(=O)Nc2ccc(C(=O)N3CCc4cc(C(=O)Nc5c(F)cccc5F)sc4-c4ncccc43)cc2)c1` [Example 89] was tested. Which pEC50 did it give?
The pEC50 was greater than 8.00.

How did the pEC50 turn out when `Cc1cnc(N2CCC3(CC2)COC3)c(C(=O)Nc2ccc(C(=O)N3CCc4cc(C(=O)Nc5ccccc5)sc4-c4ncccc43)cc2)c1` [Example 90] was run?
The pEC50 was 7.30 to 8.00.

How did the pEC50 turn out when `Cc1cnc(N2CCC3(CC2)COC3)c(C(=O)Nc2ccc(C(=O)N3CCc4cc(C(=O)Nc5c(Cl)cccc5Cl)sc4-c4ncccc43)cc2)c1` [Example 91] was run?
Its pEC50 is greater than 8.00.

`Cc1cnc(N2CCC3(CC2)COC3)c(C(=O)Nc2ccc(C(=O)N3CCc4cc(C(=O)Nc5c(C)cccc5C#N)sc4-c4ncccc43)cc2)c1` [Example 92] was tested. Which pEC50 did it give?
The pEC50 was 7.30 to 8.00.

With `Cc1cnc(N2CCC3(CC2)COC3)c(C(=O)Nc2ccc(C(=O)N3CCc4cc(C(=O)Nc5c(F)cccc5Cl)sc4-c4ncccc43)cc2)c1` [Example 93] as the molecule, how does the pEC50 read?
The pEC50 was greater than 8.00.

`Cc1cnc(N2CCC3(CC2)COC3)c(C(=O)Nc2ccc(C(=O)N3CCc4cc(C(=O)Nc5c(F)cccc5C(F)(F)F)sc4-c4ncccc43)cc2)c1` [Example 94] was tested. Which pEC50 did it give?
The pEC50 was 7.30 to 8.00.

`Cc1cnc(N2CCC3(CC2)COC3)c(C(=O)Nc2ccc(C(=O)N3CCc4cc(C(=O)Nc5ncccc5F)sc4-c4ncccc43)cc2)c1` [Example 95] was tested. Which pEC50 did it give?
The pEC50 was 7.30 to 8.00.

How did the pEC50 turn out when `Cc1cnc(N2CCC3(CC2)COC3)c(C(=O)Nc2ccc(C(=O)N3CCc4cc(-c5nc6cccc(F)c6[nH]5)sc4-c4ncccc43)cc2)c1` [Example 97] was run?
The pEC50 was 7.30 to 8.00.

How did the pEC50 turn out when `Cc1cnc(N2CCC3(CC2)COC3)c(C(=O)Nc2ccc(C(=O)N3CCc4cc(C(=O)Nc5c(C)cccc5F)sc4-c4ncccc43)cc2)c1` [Example 98] was run?
The pEC50 was greater than 8.00.

With `Cc1cnc(N2CC3(CCOCC3)C2)c(C(=O)Nc2ccc(C(=O)N3CCc4cc(C(=O)Nc5c(F)cccc5F)oc4-c4ncc(F)cc43)cc2)c1` [Example 99] as the molecule, how does the pEC50 read?
The pEC50 was greater than 8.00.

How did the pEC50 turn out when `Cc1cnc(N2CC3(CCOCC3)C2)c(C(=O)Nc2ccc(C(=O)N3CCc4cc(C(=O)Nc5c(Cl)cccc5Cl)oc4-c4ncc(F)cc43)cc2)c1` [Example 100] was run?
The pEC50 was 7.30 to 8.00.

`Cc1cnc(N2CC3(CCOCC3)C2)c(C(=O)Nc2ccc(C(=O)N3CCc4cc(C(=O)Nc5c(F)cccc5Cl)oc4-c4ncc(F)cc43)cc2)c1` [Example 101] was tested. Which pEC50 did it give?
Its pEC50 is greater than 8.00.

`Cc1cnc(N2CC3(CCOCC3)C2)c(C(=O)Nc2ccc(C(=O)N3CCc4cc(C(=O)Nc5c(F)cccc5C(F)(F)F)oc4-c4ncc(F)cc43)cc2)c1` [Example 102] was tested. Which pEC50 did it give?
The pEC50 was 7.30 to 8.00.

With `Cc1cnc(N2CC3(CCOCC3)C2)c(C(=O)Nc2ccc(C(=O)N3CCc4cc(-c5nc6ccccc6[nH]5)oc4-c4ncc(F)cc43)cc2)c1` [Example 103] as the molecule, how does the pEC50 read?
Its pEC50 is 7.30 to 8.00.

`O=C(Nc1c(F)cccc1F)c1cc2c(o1)-c1ncc(F)cc1N(C(=O)c1ccc(NC(=O)c3cc4c(nc3N3CC5(CCOCC5)C3)CCC4)cc1)CC2` [Example 104] was tested. Which pEC50 did it give?
Its pEC50 is greater than 8.00.

`O=C(Nc1c(Cl)cccc1Cl)c1cc2c(o1)-c1ncc(F)cc1N(C(=O)c1ccc(NC(=O)c3cc4c(nc3N3CC5(CCOCC5)C3)CCC4)cc1)CC2` [Example 105] was tested. Which pEC50 did it give?
Its pEC50 is greater than 8.00.

How did the pEC50 turn out when `O=C(Nc1c(F)cccc1Cl)c1cc2c(o1)-c1ncc(F)cc1N(C(=O)c1ccc(NC(=O)c3cc4c(nc3N3CC5(CCOCC5)C3)CCC4)cc1)CC2` [Example 106] was run?
The pEC50 was greater than 8.00.

With `O=C(Nc1c(F)cccc1C(F)(F)F)c1cc2c(o1)-c1ncc(F)cc1N(C(=O)c1ccc(NC(=O)c3cc4c(nc3N3CC5(CCOCC5)C3)CCC4)cc1)CC2` [Example 107] as the molecule, how does the pEC50 read?
The pEC50 was greater than 8.00.

How did the pEC50 turn out when `O=C(Nc1ccc(C(=O)N2CCc3cc(-c4nc5ccccc5[nH]4)oc3-c3ncc(F)cc32)cc1)c1cc2c(nc1N1CC3(CCOCC3)C1)CCC2` [Example 108] was run?
Its pEC50 is 7.30 to 8.00.

`Cc1cnc(N2CC3(CCOCC3)C2)c(C(=O)Nc2ccc(C(=O)N3CCc4cc(-c5ccc[nH]c5=O)oc4-c4ncc(F)cc43)cc2)c1` [Example 109] was tested. Which pEC50 did it give?
The pEC50 was 7.30 to 8.00.

`Cc1cnc(N2CC3(CCOCC3)C2)c(C(=O)Nc2ccc(C(=O)N3CCc4cc(-c5ccc[nH]c5=O)sc4-c4ncc(F)cc43)cc2)c1` [Example 110] was tested. Which pEC50 did it give?
The pEC50 was 7.30 to 8.00.

With `Cc1cnc(N2CC3(CCOCC3)C2)c(C(=O)Nc2ccc(C(=O)N3CCc4cc(C(=O)Nc5c(F)cccc5F)oc4-c4cccnc43)cc2)c1` [Example 111] as the molecule, how does the pEC50 read?
The pEC50 was 7.30 to 8.00.

With `Cc1cnc(N2CC3(CCOCC3)C2)c(C(=O)Nc2ccc(C(=O)N3CCc4cc(C(=O)Nc5c(C)cccc5F)oc4-c4cccnc43)cc2)c1` [Example 112] as the molecule, how does the pEC50 read?
The pEC50 was less than 7.30.
